Data as given in PMC7054612, “In vitro and in vivo pharmacokinetic characterization of LMT-28 as a novel small molecular interleukin-6 inhibitor” (Asian-Australasian Journal of Animal Sciences, 2019).
Converted amounts (≈) assume the structure as drawn. Where two headings read alike, the source gives them in different places.

How the values were obtained:
[1] = Equilibrium solubility in water, 24 h shake-flask method; format: physicochemical; details: thermodynamic from solid, 25°C
Procedure: (§1) The shake-flask method was applied to measure the equilibrium solubility of LMT-28 [16, 17]. Excess amount of LMT-28 was added into the water and the suspension was shaken at 25°C during 24 h in a flask for equilibrium solubility. The solution, then, was filtered and the concentration of LMT-28 in the filtered solution was quantified using ultra HPLC (ThermoFisher Scientific, Waltham, MA, USA) at wavelength 254 nm. The lipophilicity of LMT-28 was measured by using GLpKa (Pion, Cambridge, MA, USA) based on dip-probe absorption spectroscopy (D-PAS) method. The resultant values were calculated by LogP software (Pion, USA) and the computational predictions for number of hydrogen bond donors, hydrogen bond acceptors, rotatable bonds and predicted polar surface area (PSA) and LogS were made using Percepta software (ACD/Labs; Toronto, Canada).

[2] = tested on: IL-6-induced STAT3 activation; experiment: Western blot analysis for inhibitory effect on IL-6-induced signaling (p-STAT3) in HepG2 cells; format: cell-based; details: HepG2 cells pre-treated with LMT-28 (1, 3, 10, 30, 100 μM) for 1 h, then IL-6 10 ng/mL for 10 min; Western blotting
Procedure: HepG2 cells were seeded in MEM media (Welgene, Gyeongsan, Korea) with 10% (v/v) feta bovine serum, streptomycin (100 U/mL), and penicillin (100 U/mL; Life Technologies, Carlsbad, CA, USA). After seeding, cells were starved overnight, treated with LMT-28 for 1 h, and stimulated with IL-6 (10 ng/mL; R&D Systems, Minneapolis, MN, USA) for 10 min. Cells were treated with cell lysis buffer (Promega, Madison, WI, USA) for 30 min on ice. Cell lysates were separated on an 8% sodium dodecyl sulfate-polyacrylamide gel electrophoresis gel, then transferred to nitrocellulose membranes (Schleicher & Schuell, Dassel, Germany). The membranes were blocked overnight in Tris-buffered solution (50 mM Tris-HCl [pH 7.4], 150 mM NaCl, 0.1% Tween 20) containing 5% nonfat dry milk at 4°C and then incubated for 1 h with the appropriate primary Abs against p-STAT3 (MilliporeSigma, Burlington, MA, USA) or α-tubulin in Tris-buffered solution (TBST; 50 mM Tris-HCl [pH 7.4], 150 mM NaCl, 0.1% Tween 20) containing 5% nonfat dry milk at room temperature. The membranes were washed (10 min, five times) and incubated for 1 h with horseradish peroxidase-conjugated secondary Abs diluted to 1:6,000. After 10 washes, the membranes were incubated with enhanced chemiluminescence reagents (MilliporeSigma, USA) and chemiluminescent signals were visualized using X-ray film.

[3] = Metabolic stability in rat liver microsomes; format: in vitro ADME; details: pH 7.4
Procedure: (§2) Metabolic stability using rat and human liver microsomes (Corning Gentest, USA) of LMT-28 was performed according to previous reported protocol. In brief, NADPH regeneration solution (Corning Gentest, USA) was added to initiate the metabolic reaction after mixing LMT-28 (final concentrations; 1 μM) with human or rat liver microsomes (0.5 mg protein/mL) in 100 mM potassium phosphate buffer (pH 7.4). After incubation at 37°C at 0, 10, 30, and 60 min, the reaction was terminated by adding three times of ice-cold acetonitrile containing internal standard (carbamazepine 10 ng/mL). After mixing by vortex and centrifugation at 10,000 g for 5 min at 4°C, the supernatants were transferred to fresh LC vials. Samples (5 μL) were analyzed by directly injection into a liquid chromatography-tandem mass spectrometry (LC-MS/MS) system for the quantification of LMT-28.
(§3) The metabolic half-life and in vitro intrinsic clearance of LMT-28 were calculated by next equations [19].
(§4) Half-life (t1/2) (h)=-0.693/KCLint,in vitro(μL/min/mg protein)=(0.693/t1/2,microsomal)×(μL incubation/mg microsomal protein)CLint,in vivo(mL/min/kg)=(0.693/t1/2,microsomal)×(mL incubation/mg microsomal protein)×(mg microsomal protein/g liver)×(g liver/kg body weight)
(§5) where K is the elimination rate constant of LMT-28 in the microsomal metabolic reaction, half-life (t1/2) is microsomal metabolic half-life, CLint, in vitro is in vitro intrinsic clearance, and CLint, in vivo is in vivo intrinsic clearance. The liver weight relative to the body weight in the rat and human are 40 and 21 g/kg, respectively.

[4] = Metabolic stability in human liver microsomes; format: in vitro ADME; details: pH 7.4
Procedure: as §2, §3, §4, §5

[5] = MDCK cell permeability assay; format: in vitro ADME, canine; details: dog, MDCK cell monolayers
Procedure: In order to determine cell permeability of LMT-28, Madin-Darby canine kidney (MDCK) cells were cultured and seeded at a density of 6×10^4cells/cm^2 in 12-well Transwell plates. After checking cell monolayer integrity, the transepithelial electrical resistance (TEER) values (>500 ohms) were measured using an EVOM epithelial voltohmmeter (World Precision Instruments, Sarasota, FL, USA). After pre-incubation for 30 min at 37°C, LMT-28 (final concentrations of 2, 10, and 50 μM) was added to the donor wells in transport assay system. Sample aliquots (100 μL) were collected every 30 min for 120 min, and the same volume of fresh buffer added. The aliquots were stored at −20°C until quantitative analysis of LMT-28 concentrations by LC–MS/MS system. The apparent permeability coefficient (Papp, cm/s) was calculated as following equation: […]
where dQ/dt is the permeation rate across cell monolayer, A is the surface area of the monolayer (0.33 cm^2), and C0 is the initial donor concentration.

[6] = Plasma protein binding assay; format: in vitro ADME
[7] = Lipophilicity (LogP) by GLpKa, D-PAS method; format: physicochemical
Procedure: as §1

[8] = Stability during sample handling and processing for LC-MS/MS analysis in biological fluids; details: plasma or microsomal reaction solution
Procedure: (§6) The concentrations of LMT-28 in plasma or microsomal reaction solution were determined by LC-MS/MS. For the sample preparation before LC-MS/MS analysis, three times (75 μL) of acetonitrile containing internal standard (carbamazepine 10 ng/mL) were added to 25 μL aliquots of the plasma samples. The samples were vortex-mixed and centrifuged at 10,000 g for 5 min at 4°C for the protein precipitation. The supernatant (90 μL) was transferred to LC vials and 5 μL was injected onto a LC-MS/MS system.
(§7) Mass spectrometric detection of LMT-28 was performed on an API 4000 Qtrap mass spectrometer (AB Sciex, Foster City, CA, USA) equipped with a positive electrospray ionization source. The chromatographic separation was performed on Hypersil Gold C18 column (50 mm×2.1 mm i.d., 3 μm particle size; ThermoFisher Scientific, USA) with a flow rate of 0.3 mL/min. The positive multiple reaction monitoring (MRM) mode were based on the most abundant product ions at m/z 312 → 165 for LMT-28, and m/z 237 → 194 for internal standard. Other parameters were the nebulizing (GS1), 50 psi; heating (GS2), 50 psi; collision energy, 23 eV for LMT-28 and 15 eV for internal standard, respectively. Analyst software version 1.4.2 (AB Sciex, USA) was used for the analysis of LMT-28 concentrations.

[9] = In vivo pharmacokinetic study in male BALB/c mice; details: for AUC(0-t): n = 4, read-out: AUC8h; for half-life: n = 4, read-out: t1/2 (terminal elimination half-life) (converted)
Procedure: To evaluate in vivo pharmacokinetics in mice, LMT-28 was dissolved in phosphate-buffered saline (pH 7.4) containing 5% (w/v) carboxymethyl cellulose (MilliporeSigma, USA) and administered orally by using oral needle and intravenously in the mouse tail vein at the dose of 5 mg/kg to male BALB/c mice (22 to 25 g) after overnight fasting. Blood samples (50 μL) were collected at 0.5, 1, 2, 4, 6, and 8 h after oral administration of LMT-28. After taking the blood samples from mice, the samples were centrifuged to obtain plasma samples at 4°C and 10,000 g and obtained plasma samples were stored at −20°C. These plasma samples (25 μL) were used for the quantification of LMT-28 concentration in mice.
as §6, §7
The plasma concentrations versus time profiles of LMT-28 in mice were analyzed by a non-compartmental model using WinNonlin software ver 5.3 (Pharsight, Mountain View, CA, USA). The pharmacokinetic parameters such as area under the plasma concentration-time curve (AUC), peak plasma concentration (Cmax) and the time to reach a peak concentration (Tmax), terminal elimination half-life (t1/2), mean residence time (MRT) after oral administration were obtained from each mouse’s plasma concentration-time plots for LMT-28. All data were expressed as the mean±standard deviation. A value of p<0.05 by student t-test or analysis of variance analysis was considered to be statistically significant.

[10] = mouse, plasma, intravenous (i.v) 5 mg/kg, n = 4
[11] = mouse, plasma, intravenous (i.v) 5 mg/kg
[12] = mouse, plasma, oral (p.o.) 5 mg/kg, n = 4
[13] = mouse, plasma, oral (p.o.) 5 mg/kg

With C=C(CCCCC)[C@@H](O)[C@H](C)C(=O)N1C(=O)OC[C@@H]1C(C)C [LMT-28] the solubility at 24 h [1] was 390 ± 120 µg/mL (≈ 1250 µM), the “Inhibition of IL-6-induced p-STAT3 expression” value [2] was “inhibit the IL-6-induced p-STAT3 expression in a dose-dependent manner” and the half-life at 1 μM ([3]; rat liver microsomes 0.5 mg protein/mL, 1 μM, NADPH, 37°C, read-out: Liver microsomal stability half-life (t1/2, rat)) was 15.3 ± 1.4 min. For the same molecule, the microsomal CLint at 1 μM ([3]; rat liver microsomes, calculated from rat microsomal half-life, read-out: In vitro intrinsic clearance CLint, in vitro (Rat)) was 91 ± 8.4 µL/min/mg, the CLint scaled at 1 μM ([3]; rat liver microsomes, scaled from rat microsomal half-life, liver weight 40 g/kg, read-out: In vivo intrinsic clearance CLint, in vivo (Rat)) was 164 ± 15 mL/min/kg and the microsomal CLint at 1 μM ([4]; human liver microsomes, calculated from human microsomal half-life, read-out: In vitro intrinsic clearance CLint, in vitro (Human)) was 64 ± 8.1 µL/min/mg. It also gave a CLint scaled at 1 μM ([4]; human liver microsomes, scaled from human microsomal half-life, liver weight 21 g/kg, read-out: In vivo intrinsic clearance CLint, in vivo (Human)) of 60 ± 7.7 mL/min/kg, a half-life at 1 μM ([4]; human liver microsomes 0.5 mg protein/mL, 1 μM, NADPH, 37°C, read-out: Liver microsomal stability half-life (t1/2, human)) of 21.9 ± 2.8 min and a Papp at 120 min, 10 μM [5] of 9.7 ± 1.8 ×10⁻⁶ cm/s. For the same molecule, the “Plasma protein to which the drug is bound” value ([6]; at 2 μM) was “mostly bound to serum albumin”, the fraction unbound at 2 μM ([6]; plasma, read-out: Plasma protein binding (bound drug %) (converted)) was 0.076 and the logP [7] was 3.65 ± 0.22. The “Stability under sample handling and processing” value [8] was “stable under various conditions of sample handling and processing”, the bioavailability ([9]; male, BALB/c, mouse, plasma, oral, 5 mg/kg, oral vs intravenous, 5 mg/kg, read-out: F (bioavailability)) was about 38.2% and the AUC(0-inf) [9, 10] was 677 ± 264 ng·h/mL. It also gave an MRT [9, 10] of 1.58 ± 0.32 h, a clearance [9, 10] of 144 mL/min/kg and an AUC(0-t) [9, 11] of 661 ± 253 ng·h/mL. It also gave a Vd ([9]; mouse, plasma, intravenous (i.v) 5 mg/kg, n = 4, read-out: Vss) of 12.9 ± 4.66 L/kg, a half-life [9, 11] of 82.2 ± 17.4 min and an AUC(0-inf) [9, 12] of 302 ± 209 ng·h/mL. The Cmax [9, 12] was 137 ± 100 ng/mL, the MRT [9, 12] was 1.9 ± 0.55 h and the Tmax [9, 12] was 48 ± 40.2 min. For the same molecule, the AUC(0-t) [9, 13] was 292 ± 202 ng·h/mL, the half-life [9, 13] was 67.8 ± 16.2 min and the “Share of total AUC (AUC∞) covered by AUC8h” value ([9]; oral 5 mg/kg) was “approximately 96.7%”.
